From publication PMC9186491, “Novel Small Molecule Tyrosine Kinase 2 Pseudokinase Ligands Block Cytokine-Induced TYK2-Mediated Signaling Pathways” (Frontiers in Immunology, 2022)
Several values for one entry are separate records, joined by “and”; a condition that tells them apart may be missing. Identical values can stand only once. Like-named read-outs stand apart in the source and are kept apart here.

Columns and labels:
[1] = molecular target: T1, TYK2 JH2 pseudokinase domain (Homo sapiens, UniProt P29597); test: KdELECT competition binding assay, TYK2 JH2; settings: isolated TYK2 JH2 domain
T1 construct: purchased Eurofins DiscoverX Corporation (contract assay)
T1 sequence (P29597 589-875 limits assumed): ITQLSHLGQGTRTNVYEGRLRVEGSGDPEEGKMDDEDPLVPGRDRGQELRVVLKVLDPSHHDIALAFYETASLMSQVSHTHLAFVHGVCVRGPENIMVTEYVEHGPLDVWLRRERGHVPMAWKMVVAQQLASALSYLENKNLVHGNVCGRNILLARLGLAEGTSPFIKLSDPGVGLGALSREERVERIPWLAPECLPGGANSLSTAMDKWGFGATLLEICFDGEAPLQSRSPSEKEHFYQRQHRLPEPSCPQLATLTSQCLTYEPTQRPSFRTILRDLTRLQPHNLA
Experimental: (§1) The KdELECT competition assays were performed to test the binding affinity of compounds to the JH1 kinase region or JH2 pseudokinase region in TYK2 or JAK by ligand competition with JH1 or JH2 protein segments. The assay was carried out at Eurofins DiscoverX Corporation following the established standard protocol (DiscoverX, San Diego, CA). In this assay, compounds that bind to the kinase or pseudokinase protein regions prevent the protein binding to the immobilized ligand and reduce the amount of kinase matter captured on the solid surface. […] Dissociation constants (Kds) for test compound-kinase interactions are calculated by measuring the amount of kinase captured on the solid support as a function of the test compound concentration. […] The ligated beads were blocked with excess biotin and washed with blocking buffer to remove unbound ligand and to reduce nonspecific binding. […] All reactions were performed in polypropylene 384-well plates with a final volume of 20 μL. […] The beads were then re-suspended in the elution buffer and incubated at room temperature with shaking for 30 minutes. The kinase concentration in the eluant was measured by qPCR. Two replicates were performed and averaged to obtain the Kd measurement.

TYK2 JH1 kinase domain = molecular target: T2, TYK2 JH1 kinase domain (Homo sapiens, UniProt P29597); test: KdELECT competition binding assay, TYK2 JH1; settings: isolated TYK2 JH1 domain
T2 construct: purchased Eurofins DiscoverX Corporation (contract assay)
T2 sequence (P29597 897-1176 limits assumed): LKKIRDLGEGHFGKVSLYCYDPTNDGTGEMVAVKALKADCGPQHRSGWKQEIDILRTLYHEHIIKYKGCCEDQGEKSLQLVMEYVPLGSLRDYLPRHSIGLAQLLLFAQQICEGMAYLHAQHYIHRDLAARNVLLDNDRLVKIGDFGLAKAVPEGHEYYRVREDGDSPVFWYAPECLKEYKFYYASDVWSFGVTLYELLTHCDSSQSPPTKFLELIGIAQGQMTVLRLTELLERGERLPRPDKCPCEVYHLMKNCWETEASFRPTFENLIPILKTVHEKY
Experimental: as §1

JAK3 JH1 kinase domain = molecular target: T3, JAK3 JH1 kinase domain (Homo sapiens, UniProt P52333); test: KdELECT competition binding assay, JAK3 JH1; settings: read-out: JAK Binding Selectivity (Kd) Catalytical Domain (JH1) JAK3
T3 construct: purchased Eurofins DiscoverX Corporation (contract assay)
Experimental: as §1

[2] = molecular target: T4, JAK2 JH2 pseudokinase domain (Homo sapiens, UniProt O60674); test: KdELECT competition binding assay, JAK2 JH2; settings: read-out: JAK Binding Selectivity (Kd) Pseudokinase Domain (JH2) JAK2
T4 construct: purchased Eurofins DiscoverX Corporation (contract assay)
T4 sequence (O60674 545-809 limits assumed): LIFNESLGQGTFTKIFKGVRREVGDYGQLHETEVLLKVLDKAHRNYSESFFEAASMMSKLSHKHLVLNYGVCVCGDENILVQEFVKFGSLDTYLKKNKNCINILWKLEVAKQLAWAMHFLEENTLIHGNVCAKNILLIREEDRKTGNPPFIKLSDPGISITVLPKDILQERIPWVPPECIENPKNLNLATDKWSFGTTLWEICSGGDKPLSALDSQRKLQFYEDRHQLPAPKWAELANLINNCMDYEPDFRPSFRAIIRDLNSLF
Experimental: as §1

[3] = system: IFNα-induced TYK2/phosphoSTAT1 (Tyr701) in Kit225 T cells; test: Kit225 T cell assay for IFNα-induced TYK2/phosphoSTAT1 activity; assay type: cell-based, human; settings: Homo sapiens; Kit225 cells, 80 ng/mL IFNα, AlphaLISA; read-out: IC50 IFNα-induced-STAT1 Phosphorylation
Experimental: The cells were treated with serially diluted compounds for 1 hour and stimulated with 80 ng/mL human recombinant IFNα (R&D Systems) for 15 minutes. The treated cells were then lysed and cellular phosphorylated-STAT1 (Tyr701) levels were measured by AlphaLISA (PerkinElmer, Cat#ALSU-PST1) according to the manufacturer’s instructions.

JAK3 = molecular target: T5, JAK3 (Homo sapiens, UniProt P52333); test: Z'LYTE JAK kinase inhibition assay, JAK3; assay type: biochemical; settings: read-out: JAK Catalytic Selectivity (IC50) JAK3
T5 sequence (P52333 1-1124): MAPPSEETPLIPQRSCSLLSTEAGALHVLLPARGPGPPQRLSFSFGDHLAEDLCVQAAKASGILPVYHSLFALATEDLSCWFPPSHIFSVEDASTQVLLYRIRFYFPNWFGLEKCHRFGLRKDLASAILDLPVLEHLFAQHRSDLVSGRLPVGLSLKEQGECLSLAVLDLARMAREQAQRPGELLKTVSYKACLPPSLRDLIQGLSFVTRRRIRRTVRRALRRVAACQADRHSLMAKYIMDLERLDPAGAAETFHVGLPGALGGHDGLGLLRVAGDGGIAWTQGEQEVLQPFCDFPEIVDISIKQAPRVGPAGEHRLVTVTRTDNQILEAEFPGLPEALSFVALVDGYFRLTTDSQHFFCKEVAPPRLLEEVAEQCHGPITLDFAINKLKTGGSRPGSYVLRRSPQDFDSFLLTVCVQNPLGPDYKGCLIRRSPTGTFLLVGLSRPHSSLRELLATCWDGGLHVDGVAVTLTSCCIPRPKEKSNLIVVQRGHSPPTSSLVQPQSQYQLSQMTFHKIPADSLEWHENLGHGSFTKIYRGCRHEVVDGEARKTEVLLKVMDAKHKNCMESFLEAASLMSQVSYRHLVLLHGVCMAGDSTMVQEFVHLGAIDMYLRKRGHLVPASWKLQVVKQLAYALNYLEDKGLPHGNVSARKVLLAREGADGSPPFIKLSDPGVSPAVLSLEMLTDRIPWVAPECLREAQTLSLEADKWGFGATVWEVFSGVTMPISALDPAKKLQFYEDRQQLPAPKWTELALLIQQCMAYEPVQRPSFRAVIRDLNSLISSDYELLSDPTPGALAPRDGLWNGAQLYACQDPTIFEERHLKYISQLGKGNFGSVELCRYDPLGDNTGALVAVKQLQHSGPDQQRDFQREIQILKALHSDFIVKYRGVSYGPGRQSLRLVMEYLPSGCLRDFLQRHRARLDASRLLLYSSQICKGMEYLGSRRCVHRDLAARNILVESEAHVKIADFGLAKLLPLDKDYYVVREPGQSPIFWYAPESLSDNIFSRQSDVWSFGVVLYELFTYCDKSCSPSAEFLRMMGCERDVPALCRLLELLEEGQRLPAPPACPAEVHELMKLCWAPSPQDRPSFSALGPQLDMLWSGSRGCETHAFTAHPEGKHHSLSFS

[4] = system: JAK1-dependent IL6-induced phosphorylation of STAT3 (Tyr705) in TF1 cells; test: JAK cellular selectivity assay, IL6-pSTAT3 (JAK1); assay type: cell-based; settings: Homo sapiens, TF-1; TF1 cells; read-out: JAK Cellular Selectivity (IC50) IL6-pSTAT3 (JAK1)
Experimental: The cells were then ready for the assay after incubating for 2 hours in a humidified, 5% CO2 cell culture incubator at 37°C. […] The curve fit was generated, and statistical analysis was performed using GraphPad Prism. IC50 values were derived by non-linear regression analysis and defined as the compound concentration at which the response level was reduced to half of its maximum relative to a DMSO control.

PPB, H = assay type: in vitro ADME; settings: human, plasma
PPB, R = assay type: in vitro ADME; settings: rat, plasma
LogD = assay type: physicochemical
CYP450 3A4 = CYP450 3A4 (Homo sapiens, UniProt P08684); test: CYP450 inhibition, 3A4; assay type: in vitro ADME
CYP450 3A4, sequence (P08684 whole entry): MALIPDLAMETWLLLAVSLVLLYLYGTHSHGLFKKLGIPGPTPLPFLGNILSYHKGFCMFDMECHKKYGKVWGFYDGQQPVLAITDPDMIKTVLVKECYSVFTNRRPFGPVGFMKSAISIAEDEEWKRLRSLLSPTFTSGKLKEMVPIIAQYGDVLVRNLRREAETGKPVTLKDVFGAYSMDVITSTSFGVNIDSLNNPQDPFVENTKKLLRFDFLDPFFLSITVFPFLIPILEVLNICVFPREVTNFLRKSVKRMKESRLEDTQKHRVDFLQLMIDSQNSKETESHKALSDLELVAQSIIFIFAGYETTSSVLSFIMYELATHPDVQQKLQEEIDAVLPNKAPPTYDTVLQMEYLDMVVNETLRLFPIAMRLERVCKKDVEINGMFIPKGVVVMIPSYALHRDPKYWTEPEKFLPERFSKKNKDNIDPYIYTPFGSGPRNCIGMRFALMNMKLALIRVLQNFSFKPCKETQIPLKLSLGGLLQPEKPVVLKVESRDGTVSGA

[5] = 3A4(m), read-out: CYP450 3A4(m)
[6] = 3A4(t), read-out: CYP450 3A4(t)

Compound | Kd [1] | Kd (TYK2 JH1 kinase domain) [nM] | Kd (JAK3 JH1 kinase domain) [nM] | Kd [2] [nM] | IC50 [3] [nM] | IC50 (JAK3) [nM] | IC50 [4] [nM] | fraction unbound (PPB, H) | fraction unbound (PPB, R) | logD (LogD) | IC50 (CYP450 3A4; [5]) [nM] | IC50 (CYP450 3A4; [6]) [nM]
CNC(=O)c1nnc(NC(=O)N2CCC2)cc1Nc1cccc(-c2ncn(C)n2)c1OC [SHR8751] | 0.032 nM | > 20000 | 3700 ± 70 | 290 ± 99 | 37 | > 10000 | 5800 ± 3700 | 0.402 | 0.329 | 0.43 | > 30000 | > 30000
CNC(=O)c1nnc(NC(=O)C2CC2)c2[nH]c(-c3ccc(N)cc3OC)cc12 [SHR2396] | 0.029 nM and 0.019 nM | 300 | > 20000 | 190 ± 99 | 15 | > 10000 | 150 ± 59 | 0.0258 | 0.0474 | 1.19 | > 30000 | > 30000
[2H]C([2H])([2H])NC(=O)c1nnc(NC(=O)N2CCC2)cc1Nc1cccc(-c2ncn(C)n2)c1OC [SHR9332] | 0.04 nM | > 20000 | 4500 | 220 | 76 | > 10000 | 2800 ± 1700 | 0.274 | 0.254 | 0.48 | > 30000 | > 30000
